Reference: paper PMC11091220, “Metabolism-driven in vitro/in vivo disconnect of an oral ERɑ VHL-PROTAC” (Communications Biology, 2024)
Values joined by “and” are separate entries in the source; they are usually repeats but may differ in a detail not shown here. Equal values may be shown once. Read-outs that look alike come from different tables or passages of the source.

Experiments:
[1] = Plasma exposure of AZ’6421 and metabolite 8 in CTC174 PDX mice (free, cover over DC90); format: in vivo, mouse
Protocol: Mice were randomised into groups of 5 once tumour sizes reached approximately 0.3 to 0.4 cm^3. A vehicle control or AZ’6421 1, 3, 10, 30, and 100 mg/kg were dosed orally, once daily (QD) or twice daily (BID) in 5% v/v DMSO, 20% v/v Solutol HS15 in purified water formulation. AZD9833 was dosed once daily at 100 mg/kg in 40% TEG/60% (of 12.5%) SBE-β-CD formulation. Mice were dosed for 4 days and tumours were harvested 6 hours after the last dose. Tumour tissue was split into 3 and immediately snap-frozen in liquid nitrogen for subsequent analysis. Plasma samples were also taken at the end of the study by terminal cardiac bleed under isoflurane anaesthesia to measure pharmacokinetics and ensure the expected exposure was reached during the dosing period.
(§1) Each plasma sample ([…]) was prepared using an appropriate dilution factor, and compared against an 11-point standard calibration curve (1-10000 nM) prepared in DMSO and spiked into blank plasma. Acetonitrile ([…]) was added with the internal standard, followed by centrifugation at 3000 rpm for 10 minutes. The supernatant ([…]) was then diluted in […] acetonitrile:water (75:25) and analyzed via UPLC-MS/MS.
The MS/MS instrument used was either a Waters XEVO® TQ-S, Waters XEVO® TQ-D, or API 4000 (AB Sciex). The ultra-mass spectrometer used for sample analysis was completed in the MRM mode (MS/MS). Reverse-phase HPLC with a C18 column was used to separate the analytes. A mobile phase of 99% water/0.1% formic acid (solvent A) and a solvent phase of 99% acetonitrile/0.1% formic acid (solvent B) was used. A generic LC gradient elution was used at a flow rate of 0.5 mL/min with 95% solvent A and 5% solvent B for 0.3 min after which the concentration of solvent B was increased to 95% over 0.9 min before restoring it back to 5% for the remaining 0.5 min. Mass spectrometer methods were optimised for each compound.

[2] = Total plasma exposure of AZ’6421 and metabolite 8 in rat; format: in vivo; details: for Total plasma: rat, individual animals, analyte = label
Protocol: (§2) Fig. 8 Evidence of ER agonism of AZ’6421 and compound 8 in vitro and in vivo. a 100 nM compound or 10 nM estradiol (E2) were incubated with Ishikawa cells for 48 h and lysates measured for PR expression by western blot. b Normalised rat uterine weight shown as % change from respective vehicle control after 4 days dosing. c Representative H&E stained images taken from sections of uterine horn after 4 days of dosing. d Total plasma exposure of AZ’6421 and its metabolite 8 following dosing of 100 mg/kg BID or 30 mg/kg BID AZ’6421. Plasma samples were taken 4 hr after the 4th dose, at the same time as the uterus was weighed and sectioned for H&E staining.
as §1

PR expression = experiment: ER agonism: PR expression in Ishikawa cells by western blot; format: cell-based; details: for PR expression (% vs 10 nM E2): 100 nM compound, individual replicates; for PR expression in the Ishikawa endometrial cell line: 100 nM, 48 h
Protocol: as §2
Cells were seeded into 12-well tissue culture-treated plates at 0.5 x 10^6 cells/well in phenol red-free RPMI containing 5% (v/v) charcoal-stripped FBS (F6765, Sigma) and left to adhere overnight. In experiments to detect agonism or for SILAC experiments, FBS was double stripped using activated charcoal. Cells were treated with compound or 0.1% DMSO vehicle control for the times indicated prior to being lysed in Pierce RIPA buffer (Thermo Scientific), supplemented with protease and phosphatase inhibitors. Expression levels of proteins were determined by standard western blotting techniques (BioRad 4%-12% Bis-Tris gels). Antibodies were diluted in 5% milk-PBS-Tween and protein levels were detected using Pierce WestDura chemiluminescent reagents followed by visualisation and quantification on a Syngene ChemiGenius Imager. Where blots were quantified, protein levels were normalised to beta-actin or vinculin control and expressed as % of vehicle control.

ERα = target: T1, ERα (Homo sapiens, UniProt P03372, D538G); experiment: CTC174 ex vivo studies, ERα by western blot; format: cell-based; details: for ERα % of DMSO control: CTC174 ex vivo; for remaining activity at 1 µM: read-out: ERα levels, % of control
T1 construct: from tissue; host or cells: CTC174 PDX tumours grown in female NSG mice; for the ex vivo work, single cells disaggregated from these tumours
T1 sequence (P03372 1-595 D538G): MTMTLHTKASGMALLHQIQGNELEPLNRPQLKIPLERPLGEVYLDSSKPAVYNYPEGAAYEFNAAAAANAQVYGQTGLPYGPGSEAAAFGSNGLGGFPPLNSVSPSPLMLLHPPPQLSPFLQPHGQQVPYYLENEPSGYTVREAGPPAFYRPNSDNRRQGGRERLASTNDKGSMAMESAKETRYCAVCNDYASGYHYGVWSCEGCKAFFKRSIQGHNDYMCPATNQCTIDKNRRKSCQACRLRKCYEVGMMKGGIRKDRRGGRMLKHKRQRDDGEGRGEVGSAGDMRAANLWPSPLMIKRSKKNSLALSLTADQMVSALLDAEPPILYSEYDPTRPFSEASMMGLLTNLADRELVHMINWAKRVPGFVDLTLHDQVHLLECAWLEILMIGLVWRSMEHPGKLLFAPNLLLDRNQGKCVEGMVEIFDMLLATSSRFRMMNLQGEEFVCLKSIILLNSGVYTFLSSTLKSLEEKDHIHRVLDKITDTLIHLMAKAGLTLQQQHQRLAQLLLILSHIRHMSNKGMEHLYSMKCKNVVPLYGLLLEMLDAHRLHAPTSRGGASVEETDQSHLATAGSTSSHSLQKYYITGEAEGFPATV
Protocol: CTC174 tumours were collected from donor mice, all fat, mouse tissue and necrotic areas removed and the resultant tumour placed in ice cold PBS and kept on ice. Using forceps, the tumour was then minced into small pieces (1-2 mm). Once minced, the tissue was colleced, placed into a gentlMACS C tube with 4.7 mL DMEM/F12 and enzymes H, R and A (Miltenyi Tumour Dissociation Kit), and run on the gentleMACS Octo Dissociator (Program 37C_h_TDK_2). After dissociation, the cell suspension was passed through a […] filter, red blood cell lysis performed using […] lysis buffer, and the resultant suspension centrifuged, resuspended in RPMI (containing 10% charcoal-stripped FCS) and 1x10^6 cell added to each well of a 6 well plate. DMSO control, AZ’3372 or AZ’6421 were added to well at a range of concentrations, left to incubate for 24 hours (37 °C, 5% CO2) and then samples prepared for western blot and ERα levels determined as described above.

[3] = AZ'6421 dosed 30 mg/kg BID, 30 mg/kg
[4] = AZ'6421 dosed 100 mg/kg BID, 100 mg/kg

| Compound | cover for target engagement by plasma drug concentration ([1]; 100 mg/kg dose) | fraction converted to 8 within 2 hours ([1]; 100 mg/kg, from Fig. 6d) [%] | Total plasma [2, 3] | Total plasma [2, 4] | PR expression (% vs 10 nM E2) (PR expression; listed as AZ'6421) | PR expression in the Ishikawa endometrial cell line (PR expression) | ERα % of DMSO control (ERα; 1 nM, 24 hours) [%] | ERα % of DMSO control (ERα; 10 nM, 24 hours) [%] | ERα % of DMSO control (ERα; 30 nM, 24 hours) [%] | ERα % of DMSO control (ERα; 100 nM, 24 hours) [%] | ERα % of DMSO control (ERα; 300 nM, 24 hours) [%] | ERα % of DMSO control (ERα; 1000 nM, 24 hours) [%] | ERα degradation (ERα; CTC174 cells ex vivo, 24 hours, 10 nM and above) | remaining activity at 1 µM (ERα) [%] | free plasma concentration, fold above the compounds DC90 ([1]; AZ’6421 efficacy study) [fold] | free plasma concentration, fold higher than free AZ’6421 ([1]; steady state, AZ’6421 efficacy study) | level in rat plasma ([2]; after dosing AZ’6421) | PR expression (% vs 10 nM E2) (PR expression) | remaining activity at 1 µM (ERα; 1000 nM, CTC174 cells ex vivo (Fig. 6f)) [%] |
| --- | --- | --- | --- | --- | --- | --- | --- | --- | --- | --- | --- | --- | --- | --- | --- | --- | --- | --- | --- |
| Cc1ncsc1-c1ccc(CNC(=O)[C@@H]2C[C@@H](O)CN2C(=O)[C@@H](NC(=O)COCCCOCCCOc2cc(F)c([C@@H]3c4[nH]c5ccccc5c4C[C@@H](C)N3CC(C)(C)F)c(F)c2)C(C)(C)C)cc1 [Compound 5] | free plasma exposure > free DC90 | 7 | 0.1461 µM and 0.4943 µM and 0.0995 µM | 1.2846 µM and 2.0194 µM and 0.7522 µM and 0.1020 µM and 0.0689 µM | 0.39% and 0.32% | failed to induce PR expression | 20.3 | 12.0 | 4.1 | 4.2 | 3.9 | 3.6 | approximately 90% | < 1 |  |  |  |  |  |
| C[C@@H]1Cc2c([nH]c3ccccc23)[C@@H](c2c(F)cc(OCCC(=O)O)cc2F)N1CC(C)(C)F [Compound 8] |  |  | 1.0069 µM and 2.5325 µM and 3.6803 µM and 2.8962 µM and 0.8884 µM | 7.8737 µM and 9.6410 µM and 6.9833 µM and 3.4205 µM and 4.6683 µM |  | induced PR expression to a similar extent as AZD9496 |  |  |  |  |  |  |  |  | > 10 | ~ 10 fold | found at sizable levels in rat plasma | 4.18% and 6.31% | 42 |
